Results from patent US20100311714A1, “1H-IMIDAZO[4,5-c]QUINOLINONE COMPOUNDS” (priority 2009, published 2010).
pIC50: −log10 of the molar value. Like-named read-outs stand apart in the source and are kept apart here.

System: S6 Ribosomal Protein phosphorylation Ser235/236 in TSC1 null mouse embryo fibroblast (MEF) cells
Assay: Reverse protein array, S6 Ribosomal Protein phosphorylation in TSC1 null MEF cells
Assay type: cell-based
Settings: 1 h, TSC1-/- MEFs, 60 minutes
In short: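 Phospho-S6 (Ser235/236) was quantified by reverse protein array of cell lysates with a phospho-specific primary antibody. […]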

**Q.** `COc1cc(-c2ccc3ncc4c(c3c2)n(-c2ccc(N3CCC(OC)C3)nc2C)c(=O)n4C)cnc1CO` (stereo not shown) [Example 28.3, 8-(6-Hydroxymethyl-5-methoxy-pyridin-3-yl)-1-[6-(3-methoxy-pyrrolidin-1-yl)-2-methyl-pyridin-3-yl]-3-methyl-1,3-dihydro-imidazo[4,5-c]quinolin-2-one] was tested. Which pIC50 (read-out: p-S6 IC50) did it give?
**A.** 8.10

**Q.** `COc1cc(-c2ccc3ncc4c(c3c2)n(-c2ccc(N3CC[C@H](O)C3)nc2C)c(=O)n4C)cnc1CO` [Example 32.7, 8-(6-Hydroxymethyl-5-methoxy-pyridin-3-yl)-1-[6-((S)-3-hydroxy-pyrrolidin-1-yl)-2-methyl-pyridin-3-yl]-3-methyl-1,3-dihydro-imidazo[4,5-c]quinolin-2-one] was tested. Which pIC50 (read-out: p-S6 IC50) did it give?
**A.** 7.67

**Q.** How did the pIC50 (read-out: p-S6 IC50) turn out when `CCNc1cc(-c2ccc3ncc4c(c3c2)n(-c2ccc(N3CC(F)(F)C(F)(F)C3)nc2C)c(=O)n4C)cnc1CO` [Example 35.2, 8-(5-Ethylamino-6-hydroxymethyl-pyridin-3-yl)-3-methyl-1-[2-methyl-6-(3,3,4,4-tetrafluoro-pyrrolidin-1-yl)-pyridin-3-yl]-1,3-dihydro-imidazo[4,5-c]quinolin-2-one] was run?
**A.** 9.00

**Q.** How did the pIC50 (read-out: p-S6 IC50) turn out when `COCc1ncc(-c2ccc3ncc4c(c3c2)n(-c2ccc(F)nc2C)c(=O)n4C)cc1OC` [Example 7.7, 1-(6-Fluoro-2-methyl-pyridin-3-yl)-8-(5-methoxy-6-methoxymethyl-pyridin-3-yl)-3-methyl-1,3-dihydro-imidazo[4,5-c]quinolin-2-one] was run?
**A.** 6.95

**Q.** With `CNc1ncc(-c2ccc3ncc4c(c3c2)n(-c2ccc(N3CC[C@@H](O)C3)nc2C)c(=O)n4C)cn1` [Example 34.1, 1-[6-((R)-3-Hydroxy-pyrrolidin-1-yl)-2-methyl-pyridin-3-yl]-3-methyl-8-(2-methylamino-pyrimidin-5-yl)-1,3-dihydro-imidazo[4,5-c]quinolin-2-one] as the compound, how does the pIC50 (read-out: p-S6 IC50) read?
**A.** 8.52

**Q.** How did the pIC50 (read-out: p-S6 IC50) turn out when `Cc1nc(F)ccc1-n1c(=O)n(C)c2cnc3ccc(-c4cncc(N5CCC5)c4)cc3c21` [Example 7.6, 8-(5-Azetidin-1-yl-pyridin-3-yl)-1-(6-fluoro-2-methyl-pyridin-3-yl)-3-methyl-1,3-dihydro-imidazo[4,5-c]quinolin-2-one] was run?
**A.** 8.15

**Q.** How did the pIC50 (read-out: p-S6 IC50) turn out when `Cc1nc(N2CCC(O)C2)ccc1-n1c(=O)n(C)c2cnc3ccc(-c4cncc(C(C)(C)O)c4)cc3c21` (stereo not shown) [Example 27.5, 8-[5-(1-Hydroxy-1-methyl-ethyl)-pyridin-3-yl]-1-[6-(3-hydroxy-pyrrolidin-1-yl)-2-methyl-pyridin-3-yl]-3-methyl-1,3-dihydro-imidazo[4,5-c]quinolin-2-one] was run?
**A.** 7.48

**Q.** With `COc1cc(-c2ccc3ncc4c(c3c2)n(-c2ccc(F)nc2C)c(=O)n4C)cnc1CO` [Example 7.10, 1-(6-Fluoro-2-methyl-pyridin-3-yl)-8-(6-hydroxymethyl-5-methoxy-pyridin-3-yl)-3-methyl-1,3-dihydro-imidazo[4,5-c]quinolin-2-one] as the compound, how does the pIC50 (read-out: p-S6 IC50) read?
**A.** 7.82

**Q.** `COCc1ncc(-c2ccc3ncc4c(c3c2)n(-c2cccnc2C)c(=O)n4C)cc1OC` [Example 2.30, 8-(5-Methoxy-6-methoxymethyl-pyridin-3-yl)-3-methyl-1-(2-methyl-pyridin-3-yl)-1,3-dihydro-imidazo[4,5-c]quinolin-2-one] was tested. Which pIC50 (read-out: p-S6 IC50) did it give?
**A.** 7.47

**Q.** How did the pIC50 (read-out: p-S6 IC50) turn out when `COc1ccc(-n2c(=O)n(C)c3cnc4ccc(-c5cnc(C(OC)OC)c(OC)c5)cc4c32)c(OC)n1` [Example 8.13, 8-(6-Dimethoxymethyl-5-methoxy-pyridin-3-yl)-1-(2,6-dimethoxy-pyridin-3-yl)-3-methyl-1,3-dihydro-imidazo[4,5-c]quinolin-2-one] was run?
**A.** 7.82

**Q.** How did the pIC50 (read-out: p-S6 IC50) turn out when `Cc1nc(N2CC(O)C2)ccc1-n1c(=O)n(C)c2cnc3ccc(-c4cncc(C(C)(C)O)c4)cc3c21` [Example 29.1, 1-[6-(3-Hydroxy-azetidin-1-yl)-2-methyl-pyridin-3-yl]-8-[5-(1-hydroxy-1-methyl-ethyl)-pyridin-3-yl]-3-methyl-1,3-dihydro-imidazo[4,5-c]quinolin-2-one] was run?
**A.** 7.82

**Q.** With `COc1ccc(-n2c(=O)n(C)c3cnc4ccc(-c5cncc(N6CCC6)c5)cc4c32)c(OC)n1` [Example 8.11, 8-(5-Azetidin-1-yl-pyridin-3-yl)-1-(2,6-dimethoxy-pyridin-3-yl)-3-methyl-1,3-dihydro-imidazo[4,5-c]quinolin-2-one] as the compound, how does the pIC50 (read-out: p-S6 IC50) read?
**A.** 9.00

**Q.** How did the pIC50 (read-out: p-S6 IC50) turn out when `CNc1ncc(-c2ccc3ncc4c(c3c2)n(-c2ccc(N3CCC(OC)C3)nc2C)c(=O)n4C)cn1` (stereo not shown) [Example 28.2, 1-[6-(3-Methoxy-pyrrolidin-1-yl)-2-methyl-pyridin-3-yl]-3-methyl-8-(2-methylamino-pyrimidin-5-yl)-1,3-dihydro-imidazo[4,5-c]quinolin-2-one] was run?
**A.** 9.00

**Q.** How did the pIC50 (read-out: p-S6 IC50) turn out when `COc1cc(-c2ccc3ncc4c(c3c2)n(-c2ccc(N3CCCC3)nc2C)c(=O)n4C)cnc1CO` [Example 25.4, 8-(6-Hydroxymethyl-5-methoxy-pyridin-3-yl)-3-methyl-1-(2-methyl-6-pyrrolidin-1-yl-pyridin-3-yl)-1,3-dihydro-imidazo[4,5-c]quinolin-2-one] was run?
**A.** 8.15

**Q.** With `CNc1ncc(-c2ccc3ncc4c(c3c2)n(-c2ccc(N3CC[C@H](O)C3)nc2C)c(=O)n4C)cc1Cl` [Example 32.4, 8-(5-Chloro-6-methylamino-pyridin-3-yl)-1-[6-((S)-3-hydroxy-pyrrolidin-1-yl)-2-methyl-pyridin-3-yl]-3-methyl-1,3-dihydro-imidazo[4,5-c]quinolin-2-one] as the compound, how does the pIC50 (read-out: p-S6 IC50) read?
**A.** 8.40

**Q.** `CNC(=O)c1ccc(-c2ccc3ncc4c(c3c2)n(-c2cccnc2C)c(=O)n4C)cc1` [Example 2.4, N-Methyl-4-[3-methyl-1-(2-methyl-pyridin-3-yl)-2-oxo-2,3-dihydro-1H-imidazo[4,5-c]quinolin-8-yl]-benzamide] was tested. Which pIC50 (read-out: p-S6) did it give?
**A.** 7.64
